The values below come from US20250122455A1, “INTEGRATED SYSTEM FOR MULTIPLE CULTIVATIONS OF A BIOLOGICAL AGENT AND METHODS OF USE THEREOF” (The Hong Kong Polytechnic University, priority 2023, published 2025).

One assay has as its system PAO1 static biofilms. As to the kind of experiment: Alamar blue viability of static biofilms in the BDR device after antibiotic treatment. In kind it is cell-based, Pseudomonas aeruginosa. As for the experimental part:
The PAO1 culture was diluted 100-fold in ABTGC media and inoculated at 100 μl into each channel of the microfluidic model using a syringe and needle. Then the model was placed in a 37° C. incubator for 20 mins to allow bacteria to colonize the bottom of the microwells. ABTGC media containing tobramycin (Sigma) with concentrations of 0, 0.625, 1.25, 2.5, 5 ug/ml were injected into each chamber for 12 hrs treatment. Alamar blue cell viability reagent (Thermo Fisher) was diluted with culture media to 10% and injected into chambers, then incubated at 37° C. until the color changed from blue to pink. The colored liquid was collected from the chamber for direct measurement of OD600 nm and fluorescence (Ex: 560 nm, Em: 590 nm) using a microplate reader (Thermo Scientific Varioskan LUX Multimode Microplate Reader).
(In general: The colour change of resazurin is a common sign of viable cells or microbes.)

The test system of the next assay is P. aeruginosa biofilms. Type of assay: cell-based, Pseudomonas aeruginosa.

`NC[C@H]1O[C@H](O[C@H]2[C@H](O)[C@@H](O[C@H]3O[C@H](CO)[C@@H](O)[C@H](N)[C@H]3O)[C@H](N)C[C@@H]2N)[C@H](N)C[C@@H]1O` [tobramycin]: the “Fluorescence level of Alamar blue” value in the assay on PAO1 static biofilms (increasing tobramycin 0-5 ug/ml, 12 hrs treatment, without continuous flow, FIG. 22A) is “decreased”. Also, the “Bacterial numbers (viable cell populations)” value in the assay with PAO1 static biofilms (increasing tobramycin, static biofilms, FIG. 22B) was “reducing bacterial numbers”.
As for cellulase, the “Biofilm biomass change during EDA” value with P. aeruginosa biofilms is “continuous reduction of biofilm from top to bottom of the microwells”.
